# Assay results reported in US9513294B2, “Megastokes amino-triazolyl-BODIPY compounds and applications to live neuron staining and human serum albumin FA1 drug site probing” (National University of Singapore, priority 2012, dated 2016).
# How the values were obtained:
# [1] = Absorbance and fluorescence emission spectra (SpectraMax M2); assay type: physicochemical; settings: for λmax Absorp. (nm) / λmax Emission (nm): MKCA compound library; for λmax Absorp. (nm) / λmax Abs. (nm): absorbance maximum; for λmax Emission (nm) / λmax Em. (nm): fluorescence emission maximum; for λmax Abs. (nm) / λmax Em. (nm): MKAC compound library
# Method in brief: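 Absorbance and emission maxima measured on a SpectraMax M2 spectrophotometer, which also gave quantum yield data; analysis in GraphPrism.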
# [2] = Quantum yield measurements versus Acridine Yellow in EtOH; assay type: physicochemical; settings: for φ (quantum yield): excitation 460 nm; for φ (%): quantum yield
# Method in brief: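 Fluorescence quantum yield is relative to Acridine Yellow in EtOH (Φ 0.47), with excitation at 460 nm. Integrated emission at 510–700 nm was corrected for absorbance at the excitation wavelength and for solvent refractive index.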
compound,measurement,setting,value
O=C(CCl)Nc1ccc(C2=C3C=CC(N4CCCCC4)=[N+]3[B-](F)(F)n3c2ccc3-n2cc(-c3ccc(OC(F)(F)F)cc3)nn2)cc1 [BDCCA-15],λmax Absorp.,"[1]; BDCCA library, Table 4",462 nm
same,λmax Emission,"[1]; BDCCA library, Table 4",537 nm
same,φ (quantum yield),"[2]; BDCCA library, Table 4",2.2%
CCCc1cn(-c2ccc3n2[B-](F)(F)[N+]2=C(N4CC(C)OC(C)C4)C=CC2=C3c2ccc(NC(=O)CCl)cc2)nn1 (centres unmarked) [MKCA20-48],λmax Absorp. (nm),[1],466 nm
same,λmax Emission (nm),[1],569 nm
same,φ (%),[2]; MKCA compound library,4.88%
O=C(CCl)Nc1ccc(C2=C3C=CC(N4CCCCC4)=[N+]3[B-](F)(F)n3c2ccc3-n2cc(CO)nn2)cc1 [BDCCA-70],λmax Absorp.,"[1]; BDCCA library, Table 4",465 nm
same,λmax Emission,"[1]; BDCCA library, Table 4",584 nm
same,φ (quantum yield),"[2]; BDCCA library, Table 4",0.6%
COc1ccc(OC)c(CNC2=[N+]3C(=C(c4ccc(N)cc4)c4ccc(-n5cc(CC(C)C)nn5)n4[B-]3(F)F)C=C2)c1 [MK181-43],λmax Absorp.,"[1]; MK library, Table 5",475 nm
same,λmax Emission,"[1]; MK library, Table 5",566 nm
same,φ (quantum yield),"[2]; MK library, Table 5",0.37%
CC(=O)Nc1ccc(C2=C3C=CC(N4CC(C)OC(C)C4)=[N+]3[B-](F)(F)n3c2ccc3-n2cc(CO)nn2)cc1 (centres unmarked) [MKAC20-70],λmax Abs. (nm),[1],467 nm
same,λmax Em. (nm),[1],586 nm
same,φ (%),[2]; MKAC compound library,1.33%
CC(C)CCc1cn(-c2ccc3n2[B-](F)(F)[N+]2=C(N4CCCCC4)C=CC2=C3c2ccc(NC(=O)CCl)cc2)nn1 [BDCCA-36],λmax Absorp.,"[1]; BDCCA library, Table 4",467 nm
same,λmax Emission,"[1]; BDCCA library, Table 4",584 nm
same,φ (quantum yield),"[2]; BDCCA library, Table 4",0.5%
CN(Cc1ccccc1)C1=[N+]2C(=C(c3ccc(NC(=O)CCl)cc3)c3ccc(-n4cc(C5CC5)nn4)n3[B-]2(F)F)C=C1 [MKCA195-4],λmax Absorp. (nm),[1],466 nm
same,λmax Emission (nm),[1],575 nm
same,φ (%),[2]; MKCA compound library,7.26%
CCCCCCc1cn(-c2ccc3n2[B-](F)(F)[N+]2=C(N4CCCCC4)C=CC2=C3c2ccc(N)cc2)nn1 [BDC-47],λmax Absorp.,"[1]; BDC library, Table 2",473 nm
same,λmax Emission,"[1]; BDC library, Table 2",574 nm
same,φ (quantum yield),"[2]; BDC library, Table 2",0.16%
CC(=O)Nc1ccc(C2=C3C=CC(N4CCc5ccccc5C4)=[N+]3[B-](F)(F)n3c2ccc3-n2cc(C3CCCC3)nn2)cc1 [MKAC66-5],λmax Abs. (nm),[1],470 nm
same,λmax Em. (nm),[1],583 nm
same,φ (%),[2]; MKAC compound library,1.96%
CCCC(C)c1cn(-c2ccc3n2[B-](F)(F)[N+]2=C(NCc4ccccc4OCC)C=CC2=C3c2ccc(N)cc2)nn1 (centres unmarked) [MK103-3],λmax Absorp.,"[1]; MK library, Table 5",474 nm
same,λmax Emission,"[1]; MK library, Table 5",564 nm
same,φ (quantum yield),"[2]; MK library, Table 5",1.71%
CCCc1cn(-c2ccc3n2[B-](F)(F)[N+]2=C(N4CCCCC4)C=CC2=C3c2ccc(NC(C)=O)cc2)nn1 [BDCAC-48],λmax Absorp.,"[1]; BDCAC library, Table 3",467 nm
same,λmax Emission,"[1]; BDCAC library, Table 3",576 nm
same,φ (quantum yield),"[2]; BDCAC library, Table 3",1.6%
CCOc1ccccc1CNC1=[N+]2C(=C(c3ccc(NC(=O)CCl)cc3)c3ccc(-n4cc(CC(C)C)nn4)n3[B-]2(F)F)C=C1 [MKCA103-43],λmax Absorp. (nm),[1],465 nm
same,λmax Emission (nm),[1],563 nm
same,φ (%),[2]; MKCA compound library,33.76%
CCCc1cn(-c2ccc3n2[B-](F)(F)[N+]2=C(NCc4ccccc4C)C=CC2=C3c2ccc(NC(=O)CCl)cc2)nn1 [MKCA101-48],λmax Absorp. (nm),[1],465 nm
same,λmax Emission (nm),[1],562 nm
same,φ (%),[2]; MKCA compound library,28.94%
CCOc1ccccc1CNC1=[N+]2C(=C(c3ccc(N)cc3)c3ccc(-n4cc(CC5CCCCC5)nn4)n3[B-]2(F)F)C=C1 [MK103-8],λmax Absorp.,"[1]; MK library, Table 5",473 nm
same,λmax Emission,"[1]; MK library, Table 5",563 nm
same,φ (quantum yield),"[2]; MK library, Table 5",1.64%
O=C(CCl)Nc1ccc(C2=C3C=CC(N4CCCC4)=[N+]3[B-](F)(F)n3c2ccc3-n2cc(CO)nn2)cc1 [MKCA215-70],λmax Absorp. (nm),[1],459 nm
same,λmax Emission (nm),[1],568 nm
same,φ (%),[2]; MKCA compound library,1.97%
CC(=O)Nc1ccc(C2=C3C=CC(N4CC(C)OC(C)C4)=[N+]3[B-](F)(F)n3c2ccc3-n2cc(C3CC3)nn2)cc1 (centres unmarked) [MKAC20-4],λmax Abs. (nm),[1],466 nm
same,λmax Em. (nm),[1],585 nm
same,φ (%),[2]; MKAC compound library,3.64%
CCOc1ccccc1CNC1=[N+]2C(=C(c3ccc(N)cc3)c3ccc(-n4cc(C5CC5)nn4)n3[B-]2(F)F)C=C1 [MK103-4],λmax Absorp.,"[1]; MK library, Table 5",473 nm
same,λmax Emission,"[1]; MK library, Table 5",563 nm
same,φ (quantum yield),"[2]; MK library, Table 5",1.68%
CCCC(C)c1cn(-c2ccc3n2[B-](F)(F)[N+]2=C(N4CCCCC4)C=CC2=C3c2ccc(N)cc2)nn1 (centres unmarked) [BDC-3],λmax Absorp.,"[1]; BDC library, Table 2",475 nm
same,λmax Emission,"[1]; BDC library, Table 2",567 nm
same,φ (quantum yield),"[2]; BDC library, Table 2",0.37%
CCOc1ccccc1CNC1=[N+]2C(=C(c3ccc(NC(=O)CCl)cc3)c3ccc(-n4cc(CC5CCCCC5)nn4)n3[B-]2(F)F)C=C1 [MKCA103-8],λmax Absorp. (nm),[1],464 nm
same,λmax Emission (nm),[1],563 nm
same,φ (%),[2]; MKCA compound library,37.77%
Cc1ccccc1CNC1=[N+]2C(=C(c3ccc(N)cc3)c3ccc(-n4cc(CC(C)C)nn4)n3[B-]2(F)F)C=C1 [MK101-43],λmax Absorp.,"[1]; MK library, Table 5",474 nm
same,λmax Emission,"[1]; MK library, Table 5",562 nm
same,φ (quantum yield),"[2]; MK library, Table 5",2.36%
CCCCCCCc1cn(-c2ccc3n2[B-](F)(F)[N+]2=C(N4CCCCC4)C=CC2=C3c2ccc(NC(=O)CCl)cc2)nn1 [BDCCA-50],λmax Absorp.,"[1]; BDCCA library, Table 4",466 nm
same,λmax Emission,"[1]; BDCCA library, Table 4",568 nm
same,φ (quantum yield),"[2]; BDCCA library, Table 4",1.0%
CC(C)Cc1cn(-c2ccc3n2[B-](F)(F)[N+]2=C(NCc4cc(F)cc(F)c4)C=CC2=C3c2ccc(NC(=O)CCl)cc2)nn1 [MKCA412-43],λmax Absorp. (nm),[1],468 nm
same,λmax Emission (nm),[1],563 nm
same,φ (%),[2]; MKCA compound library,37.83%
CC(=O)Nc1ccc(C2=C3C=CC(N4CCCC4)=[N+]3[B-](F)(F)n3c2ccc3-n2cc(CCc3ccccc3)nn2)cc1 [MKAC215-19],λmax Abs. (nm),[1],462 nm
same,λmax Em. (nm),[1],567 nm
same,φ (%),[2]; MKAC compound library,3.41%
CCCC(C)c1cn(-c2ccc3n2[B-](F)(F)[N+]2=C(N(C)Cc4ccccc4)C=CC2=C3c2ccc(NC(=O)CCl)cc2)nn1 (centres unmarked) [MKCA195-3],λmax Absorp. (nm),[1],466 nm
same,λmax Emission (nm),[1],577 nm
same,φ (%),[2]; MKCA compound library,7.95%
Nc1ccc(C2=C3C=CC(N4CCCC4)=[N+]3[B-](F)(F)n3c2ccc3-n2cc(C3CC3)nn2)cc1 [MK215-4],λmax Absorp.,"[1]; MK library, Table 5",470 nm
same,λmax Emission,"[1]; MK library, Table 5",576 nm
same,φ (quantum yield),"[2]; MK library, Table 5",0.29%
Cc1ccccc1CNC1=[N+]2C(=C(c3ccc(N)cc3)c3ccc(-n4cc(C5CC5)nn4)n3[B-]2(F)F)C=C1 [MK101-4],λmax Absorp.,"[1]; MK library, Table 5",474 nm
same,λmax Emission,"[1]; MK library, Table 5",566 nm
same,φ (quantum yield),"[2]; MK library, Table 5",0.70%
CN(C)Cc1cn(-c2ccc3n2[B-](F)(F)[N+]2=C(N4CCCCC4)C=CC2=C3c2ccc(NC(=O)CCl)cc2)nn1 [BDCCA-2],λmax Absorp.,"[1]; BDCCA library, Table 4",461 nm
same,λmax Emission,"[1]; BDCCA library, Table 4",586 nm
same,φ (quantum yield),"[2]; BDCCA library, Table 4",0.4%
Nc1ccc(C2=C3C=CC(NCc4cc(F)cc(F)c4)=[N+]3[B-](F)(F)n3c2ccc3-n2cc(C3CCCC3)nn2)cc1 [MK412-5],λmax Absorp.,"[1]; MK library, Table 5",476 nm
same,λmax Emission,"[1]; MK library, Table 5",567 nm
same,φ (quantum yield),"[2]; MK library, Table 5",0.68%
CCCCCCc1cn(-c2ccc3n2[B-](F)(F)[N+]2=C(N4CCCCC4)C=CC2=C3c2ccc(NC(C)=O)cc2)nn1 [BDCAC-47],λmax Absorp.,"[1]; BDCAC library, Table 3",467 nm
same,λmax Emission,"[1]; BDCAC library, Table 3",562 nm
same,φ (quantum yield),"[2]; BDCAC library, Table 3",1.4%
CC(=O)Nc1ccc(C2=C3C=CC(NCc4ccccc4C)=[N+]3[B-](F)(F)n3c2ccc3-n2cc(C3CCCC3)nn2)cc1 [MKAC101-5],λmax Abs. (nm),[1],466 nm
same,λmax Em. (nm),[1],563 nm
same,φ (%),[2]; MKAC compound library,23.69%
COc1ccc(OC)c(CNC2=[N+]3C(=C(c4ccc(NC(=O)CCl)cc4)c4ccc(-n5cc(CO)nn5)n4[B-]3(F)F)C=C2)c1 [MKCA181-70],λmax Absorp. (nm),[1],464 nm
same,λmax Emission (nm),[1],562 nm
same,φ (%),[2]; MKCA compound library,19.42%
CC(=O)Nc1ccc(C2=C3C=CC(NCc4ccccc4C)=[N+]3[B-](F)(F)n3c2ccc3-n2cc(CN(C)Cc3ccccc3)nn2)cc1 [MKAC101-18],λmax Abs. (nm),[1],465 nm
same,φ (%),[2]; MKAC compound library,13.14%
CC1CN(C2=[N+]3C(=C(c4ccc(N)cc4)c4ccc(-n5cc(CO)nn5)n4[B-]3(F)F)C=C2)CC(C)O1 (centres unmarked) [MK20-70],λmax Absorp.,"[1]; MK library, Table 5",479 nm
same,λmax Emission,"[1]; MK library, Table 5",584 nm
same,φ (quantum yield),"[2]; MK library, Table 5",0.18%
CC(=O)Nc1ccc(C2=C3C=CC(NCc4cc(F)cc(F)c4)=[N+]3[B-](F)(F)n3c2ccc3-n2cc(C3CC3)nn2)cc1 [MKAC412-4],λmax Abs. (nm),[1],466 nm
same,λmax Em. (nm),[1],562 nm
same,φ (%),[2]; MKAC compound library,26.84%
Cc1ccccc1CNC1=[N+]2C(=C(c3ccc(N)cc3)c3ccc(-n4cc(CN(C)Cc5ccccc5)nn4)n3[B-]2(F)F)C=C1 [MK101-18],λmax Absorp.,"[1]; MK library, Table 5",474 nm
same,λmax Emission,"[1]; MK library, Table 5",563 nm
same,φ (quantum yield),"[2]; MK library, Table 5",0.179%
